According to patent US12097202B2 (Kadmon Corporation, LLC, priority 2022, dated 2024):

Tests used:
[1] = target: CYP2D6 (Homo sapiens, UniProt P10635); assay: In vitro enzyme inhibition, CYP2D6; type: in vitro ADME
[2] = system: human peripheral blood lymphocytes (HPBL); assay: in vitro chromosome aberration assay; type: cell-based
[3] = target: CYP2C19 (Homo sapiens, UniProt P33261); assay: In vitro enzyme inhibition, CYP2C19; type: in vitro ADME
[4] = Clinical pharmacokinetics in chronic GVHD patients; type: in vivo, human
[5] = system: rats; assay: Combined male and female rat fertility study; type: in vivo; conditions: oral
Excerpt: In a combined male and female rat fertility study, belumosudil-treated male animals were mated with untreated females, or untreated males were mated with belumosudil-treated females.

[6] = system: bacterial mutagenicity (Ames); assay: in vitro bacterial mutagenicity (Ames) assay; type: cell-based
[7] = system: rats; assay: General toxicology studies in rats; type: in vivo, rat
[8] = system: dogs; assay: General toxicology studies in dogs; type: in vivo, dog
[9] = system: pregnant rabbits; conditions: female, rabbit, in vivo, po
[10] = target: T1, UGT1A9 (Homo sapiens, UniProt O60656); assay: In vitro enzyme inhibition, UGT1A9; type: in vitro ADME
T1 sequence (O60656 26-530): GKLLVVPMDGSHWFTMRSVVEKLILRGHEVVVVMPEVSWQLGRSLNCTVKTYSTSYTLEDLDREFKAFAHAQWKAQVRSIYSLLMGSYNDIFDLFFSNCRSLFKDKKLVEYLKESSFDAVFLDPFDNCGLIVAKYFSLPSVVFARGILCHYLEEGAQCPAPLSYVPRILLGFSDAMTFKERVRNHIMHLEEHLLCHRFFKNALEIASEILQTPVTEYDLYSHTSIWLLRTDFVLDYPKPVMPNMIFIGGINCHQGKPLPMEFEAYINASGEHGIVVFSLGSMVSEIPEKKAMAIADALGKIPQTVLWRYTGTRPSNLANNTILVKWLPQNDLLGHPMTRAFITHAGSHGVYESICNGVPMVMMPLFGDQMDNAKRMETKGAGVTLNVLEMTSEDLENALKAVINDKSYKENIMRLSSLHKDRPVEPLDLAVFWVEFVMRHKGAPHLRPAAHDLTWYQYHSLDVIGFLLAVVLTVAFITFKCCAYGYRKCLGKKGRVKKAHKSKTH

[11] = target: T2, CYP1A2 (Homo sapiens, UniProt P05177); assay: In vitro enzyme inhibition, CYP1A2; type: in vitro ADME
T2 sequence (P05177 1-516): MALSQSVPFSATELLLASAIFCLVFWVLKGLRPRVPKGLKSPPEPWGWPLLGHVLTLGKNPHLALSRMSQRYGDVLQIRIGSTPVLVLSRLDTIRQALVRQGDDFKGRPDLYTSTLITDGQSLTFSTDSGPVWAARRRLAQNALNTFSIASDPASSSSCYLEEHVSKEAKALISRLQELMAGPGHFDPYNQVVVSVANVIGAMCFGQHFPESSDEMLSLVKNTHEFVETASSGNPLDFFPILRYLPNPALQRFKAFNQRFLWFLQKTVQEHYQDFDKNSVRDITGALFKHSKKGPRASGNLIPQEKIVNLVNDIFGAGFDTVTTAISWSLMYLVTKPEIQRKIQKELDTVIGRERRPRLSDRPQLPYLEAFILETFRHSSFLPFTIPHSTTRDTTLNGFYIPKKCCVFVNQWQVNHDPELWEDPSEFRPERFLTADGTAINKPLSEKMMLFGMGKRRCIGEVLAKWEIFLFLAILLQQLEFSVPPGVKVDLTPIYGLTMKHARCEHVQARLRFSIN

[12] = target: T3, OATP1B1 (Homo sapiens, UniProt Q9Y6L6); assay: In vitro transporter study, OATP1B1; type: in vitro ADME; conditions: at clinically relevant concentrations
T3 sequence (Q9Y6L6 1-691): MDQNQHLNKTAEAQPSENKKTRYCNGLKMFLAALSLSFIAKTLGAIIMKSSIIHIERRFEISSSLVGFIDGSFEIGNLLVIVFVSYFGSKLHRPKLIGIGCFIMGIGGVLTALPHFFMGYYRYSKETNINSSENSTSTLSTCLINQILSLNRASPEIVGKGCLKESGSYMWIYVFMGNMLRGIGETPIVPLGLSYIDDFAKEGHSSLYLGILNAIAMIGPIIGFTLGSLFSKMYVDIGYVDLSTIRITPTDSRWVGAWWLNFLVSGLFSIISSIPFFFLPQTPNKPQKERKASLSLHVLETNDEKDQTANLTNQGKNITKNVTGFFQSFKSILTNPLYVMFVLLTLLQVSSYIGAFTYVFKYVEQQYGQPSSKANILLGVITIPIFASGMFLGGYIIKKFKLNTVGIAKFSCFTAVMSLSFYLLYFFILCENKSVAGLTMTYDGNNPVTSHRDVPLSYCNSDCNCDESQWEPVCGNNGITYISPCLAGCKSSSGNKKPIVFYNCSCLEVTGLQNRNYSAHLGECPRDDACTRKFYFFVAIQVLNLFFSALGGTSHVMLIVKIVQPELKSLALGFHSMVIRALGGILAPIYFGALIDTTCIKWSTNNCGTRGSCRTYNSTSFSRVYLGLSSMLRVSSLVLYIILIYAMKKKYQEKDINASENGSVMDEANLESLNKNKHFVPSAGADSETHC

[13] = target: T4, UGT1A1 (Homo sapiens, UniProt P22309); assay: In vitro enzyme inhibition, UGT1A1; type: in vitro ADME
T4 sequence (P22309 26-533): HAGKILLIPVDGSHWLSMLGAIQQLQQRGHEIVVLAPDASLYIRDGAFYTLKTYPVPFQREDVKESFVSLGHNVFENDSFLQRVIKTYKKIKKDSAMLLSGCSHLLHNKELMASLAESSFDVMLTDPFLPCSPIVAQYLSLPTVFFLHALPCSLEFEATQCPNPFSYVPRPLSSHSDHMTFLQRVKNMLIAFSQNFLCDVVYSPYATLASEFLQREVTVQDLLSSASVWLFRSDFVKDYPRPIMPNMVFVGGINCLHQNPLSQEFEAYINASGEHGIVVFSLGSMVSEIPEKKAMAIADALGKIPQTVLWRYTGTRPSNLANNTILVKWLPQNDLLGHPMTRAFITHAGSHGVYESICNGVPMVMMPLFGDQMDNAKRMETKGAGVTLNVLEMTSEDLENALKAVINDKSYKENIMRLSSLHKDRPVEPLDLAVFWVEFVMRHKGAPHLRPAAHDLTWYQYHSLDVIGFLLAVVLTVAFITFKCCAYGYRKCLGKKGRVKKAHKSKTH

[14] = target: P-gp (Homo sapiens, UniProt P08183); assay: In vitro transporter study, P-gp; type: in vitro ADME
P-gp, sequence (P08183 whole entry): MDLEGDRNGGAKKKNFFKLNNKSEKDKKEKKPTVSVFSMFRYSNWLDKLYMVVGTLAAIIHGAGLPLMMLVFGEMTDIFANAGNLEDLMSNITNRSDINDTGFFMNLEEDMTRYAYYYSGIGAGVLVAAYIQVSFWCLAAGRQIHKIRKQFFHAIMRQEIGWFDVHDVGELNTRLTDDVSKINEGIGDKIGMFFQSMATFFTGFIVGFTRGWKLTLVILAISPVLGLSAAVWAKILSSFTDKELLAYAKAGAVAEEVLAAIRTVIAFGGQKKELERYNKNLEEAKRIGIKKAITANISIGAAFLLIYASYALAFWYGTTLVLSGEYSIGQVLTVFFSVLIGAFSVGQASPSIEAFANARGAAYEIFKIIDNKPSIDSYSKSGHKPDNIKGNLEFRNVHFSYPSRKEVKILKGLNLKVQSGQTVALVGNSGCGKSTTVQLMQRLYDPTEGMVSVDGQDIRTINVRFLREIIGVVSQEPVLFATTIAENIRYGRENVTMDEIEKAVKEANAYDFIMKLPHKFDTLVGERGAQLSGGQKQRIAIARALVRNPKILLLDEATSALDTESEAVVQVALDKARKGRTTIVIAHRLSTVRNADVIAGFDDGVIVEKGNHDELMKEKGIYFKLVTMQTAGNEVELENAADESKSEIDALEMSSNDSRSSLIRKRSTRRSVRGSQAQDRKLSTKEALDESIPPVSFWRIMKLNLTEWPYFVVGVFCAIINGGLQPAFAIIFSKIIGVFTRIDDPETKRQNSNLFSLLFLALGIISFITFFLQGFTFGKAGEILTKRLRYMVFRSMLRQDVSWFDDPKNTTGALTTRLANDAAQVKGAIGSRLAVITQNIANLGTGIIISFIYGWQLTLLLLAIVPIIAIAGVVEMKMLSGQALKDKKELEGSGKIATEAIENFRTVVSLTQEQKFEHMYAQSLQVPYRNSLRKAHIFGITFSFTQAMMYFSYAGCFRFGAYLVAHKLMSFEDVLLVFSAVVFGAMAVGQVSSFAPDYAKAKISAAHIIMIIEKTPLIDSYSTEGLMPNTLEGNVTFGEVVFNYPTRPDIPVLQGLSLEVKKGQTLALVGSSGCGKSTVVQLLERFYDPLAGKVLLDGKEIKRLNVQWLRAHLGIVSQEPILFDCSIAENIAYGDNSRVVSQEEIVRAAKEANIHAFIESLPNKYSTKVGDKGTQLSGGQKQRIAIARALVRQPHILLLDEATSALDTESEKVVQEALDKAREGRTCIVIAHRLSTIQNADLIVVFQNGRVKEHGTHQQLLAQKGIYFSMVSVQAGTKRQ

CYP2C19, sequence (P33261 whole entry): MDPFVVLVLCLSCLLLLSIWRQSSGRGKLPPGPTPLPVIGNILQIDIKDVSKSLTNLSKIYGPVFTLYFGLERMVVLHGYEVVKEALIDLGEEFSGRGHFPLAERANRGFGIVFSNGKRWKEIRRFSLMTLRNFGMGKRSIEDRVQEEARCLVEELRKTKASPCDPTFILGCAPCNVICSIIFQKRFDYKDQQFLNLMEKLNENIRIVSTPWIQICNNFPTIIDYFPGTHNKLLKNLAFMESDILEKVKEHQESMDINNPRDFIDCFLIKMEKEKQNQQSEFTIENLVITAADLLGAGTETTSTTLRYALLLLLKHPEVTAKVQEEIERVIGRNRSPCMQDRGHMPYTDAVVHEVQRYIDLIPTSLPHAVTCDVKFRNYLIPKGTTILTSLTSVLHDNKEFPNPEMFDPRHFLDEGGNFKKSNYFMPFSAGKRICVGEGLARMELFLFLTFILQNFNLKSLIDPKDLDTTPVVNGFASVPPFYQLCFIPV
CYP2D6, sequence (P10635 whole entry): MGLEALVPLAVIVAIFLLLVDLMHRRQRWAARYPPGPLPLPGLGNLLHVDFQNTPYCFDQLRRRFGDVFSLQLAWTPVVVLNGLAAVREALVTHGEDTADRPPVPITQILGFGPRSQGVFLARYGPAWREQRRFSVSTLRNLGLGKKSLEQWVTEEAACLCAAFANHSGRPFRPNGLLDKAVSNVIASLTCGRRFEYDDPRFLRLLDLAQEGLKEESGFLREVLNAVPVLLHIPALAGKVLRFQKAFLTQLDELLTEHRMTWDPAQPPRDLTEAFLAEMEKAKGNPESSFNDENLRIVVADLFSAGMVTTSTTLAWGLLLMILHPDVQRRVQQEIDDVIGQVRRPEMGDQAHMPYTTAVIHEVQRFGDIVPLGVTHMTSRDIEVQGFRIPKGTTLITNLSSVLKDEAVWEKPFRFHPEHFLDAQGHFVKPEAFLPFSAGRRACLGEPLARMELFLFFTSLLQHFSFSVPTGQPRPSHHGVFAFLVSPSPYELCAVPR

SMILES: CC(C)NC(=O)COc1cccc(-c2nc(Nc3ccc4[nH]ncc4c3)c3ccccc3n2)c1 [belumosudil, 2-{3-[4-(1H-indazol-5-ylamino)-2-quinazolinyl]phenoxy}-N-(propan-2-yl) acetamide]
- inhibition of CYP2D6 [1]: inhibitor
- genotoxicity, chromosome aberration assay [2]: not genotoxic
- inhibition of CYP2C19 [3]: inhibitor
- increase of Cmax and AUC with dose ([4]; dosage range of 200 and 400 mg): approximately proportional
- effect of age (18 to 77 years), sex, weight (38.6 to 143 kg), mild to moderate renal impairment on pharmacokinetics ([4]; human, in vivo): No clinically significant differences
- dose with adverse fertility findings (pre- or post-implantation loss, fewer viable embryos, abnormal sperm, testes/epididymis changes, reduced fertility) [5]: 275 mg/kg/day
- genotoxicity, bacterial mutagenicity (Ames) assay [6]: not genotoxic
- dose with decreased follicular development in ovaries [7]: 275 mg/kg/day
- dose with spermatozoa degeneration [8]: 35 mg/kg/day
- doses at which embryo-fetal effects were observed [9]: ≥ 50 mg/kg/day
- doses at which maternal toxicity (body weight loss and mortality) was observed [9]: ≥ 125 mg/kg/day
- inhibition of UGT1A9 [10]: inhibitor
- inhibition of CYP1A2 [11]: inhibitor
- inhibition of OATP1B1 [12]: inhibits
- inhibition of UGT1A1 [13]: inhibitor
- P-gp substrate status [14]: substrate of P-gp
- inhibition of P-gp ([14]; at clinically relevant concentrations): inhibits
